Measurements published in US10544113B2 (priority 2016, dated 2020).
“Also recorded” adds a separate entry of the source. Where two headings read alike, the source gives them in different places.

Tests used:
DOR = assay: cAMP assay (adenylyl cyclase inhibition) in HEK-DOR cells; type: cell-based; conditions: in the presence of naloxone (20 nM)
Procedure: Human embryonic kidney 293 (HEK-293) cells constitutively expressing MOR (HEK-MOR) and DOR (HEK-DOR) (kindly provided by Dr. Ping-Yee Law, University of Minnesota, USA) were cultured in high-glucose Dulbecco's modified Eagle's medium (DMEM, GIBCO) supplemented with 400 μg/mL G418 (Sigma), 2 mM L-glutamine and P/S/F (100 units/mL penicillin, 100 μg/mL streptomycin, 10% fetal bovine serum). Chinese hamster ovary (CHO)-K1 cells, stably expressing hMOR and Gα15 (CHO-K1/MOR/Gα15), were cultured in F12 medium (GIBCO) supplemented with 10 μg/mL Hygromycin B (Invivogen), 20 μg/mL Zeocin (Invivogen) P/S/F (100 units/mL penicillin, 100 μg/mL streptomycin, 10% fetal bovine serum). The cultures were incubated at 37° C. in a humidified 5% CO2 incubator.
Briefly, 2000 HEK-MOR cells or HEK-DOR cells were plated in 10 μL/well of DMEM in 96-well solid bottom white plates and 10 μL/well compound in HBSS in the presence with 1 μM forskolin and 100 μM 3-isobutyl-1-methylxanthine (IBMX). After 30 minutes of incubation at room temperature, 10 μL/well of labeled d2-cAMP and 10 μL/well of anti-cAMP antibody (both diluted in lysis buffer) were added to each well. Two hours later, plates were measured using the FlexStationIII (Molecular Devices Corp.) with excitation at 330 nm and emissions of 620 nm and 665 nm.
To characterize of novel opioid receptor AAMs, the activity and selectivity of compound 58 were tested by inhibiting adenylyl cyclase activity (i.e., cAMP assay).
Opoid receptors inhibit adenylyl cyclase activity through Gi/o family of heterotrimeric G proteins. A cAMP-accumulation assay was performed to determine whether opioid receptor AAMs affect a G protein-dependent signaling pathway.

mu-opioid receptor (MOR) = mu-opioid receptor (MOR) (Homo sapiens (Human), UniProt P35372); assay: cell-based
mu-opioid receptor (MOR), sequence (P35372 whole entry): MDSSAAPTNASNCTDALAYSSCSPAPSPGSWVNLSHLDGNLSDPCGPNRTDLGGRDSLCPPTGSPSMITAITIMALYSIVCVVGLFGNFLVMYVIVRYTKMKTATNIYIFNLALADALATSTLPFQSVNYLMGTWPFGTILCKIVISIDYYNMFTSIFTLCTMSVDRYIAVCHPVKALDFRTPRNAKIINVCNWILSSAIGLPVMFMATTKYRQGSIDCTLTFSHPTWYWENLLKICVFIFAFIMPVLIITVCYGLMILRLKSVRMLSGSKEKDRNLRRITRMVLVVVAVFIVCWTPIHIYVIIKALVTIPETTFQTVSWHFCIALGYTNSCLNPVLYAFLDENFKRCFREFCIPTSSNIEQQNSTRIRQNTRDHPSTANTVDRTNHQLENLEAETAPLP

## Cc1cc(C(=O)O)ccc1N1C(=O)CSC1c1ccc(F)cc1 (stereo not drawn)
DOR
  effect on adenylyl cyclase activity: produced no effect
mu-opioid receptor (MOR); co-administrated with naloxone (20 nM), read-out: EC50 of calcium release
  EC50: 1.3 µM
mu-opioid receptor (MOR); combination with CTOP
  activity combined with peptide MOR antagonist CTOP: no activity was observed
mu-opioid receptor (MOR); combined with Cyprodime hydrochloride 500 nM
  AUC: 7893
mu-opioid receptor (MOR); combined with Cyprodime hydrochloride 500 nM, read-out: EC50
  EC50: 5.12 ± 2.52 µM
mu-opioid receptor (MOR); combined with Nalmefene 20 nM
  AUC: 8506
mu-opioid receptor (MOR); combined with Naloxonazine dihydrochloride 20 nM
  AUC: 11819.33
mu-opioid receptor (MOR); combined with Naloxonazine dihydrochloride 20 nM, read-out: EC50
  EC50: 0.642 µM
mu-opioid receptor (MOR); combined with Naltrexone 20 nM
  AUC: 12980.33
mu-opioid receptor (MOR); combined with Naltrexone 20 nM, read-out: EC50
  EC50: 0.63 ± 0.217 µM
mu-opioid receptor (MOR); combined with Samidorphan 10 nM
  AUC: 13179
mu-opioid receptor (MOR); combined with Samidorphan 10 nM, read-out: EC50
  EC50: 5.53 µM
mu-opioid receptor (MOR); combined with Samidorphan 20 nM
  AUC: 14094
mu-opioid receptor (MOR); combined with Samidorphan 20 nM, read-out: EC50
  EC50: 5.27 µM
mu-opioid receptor (MOR); combined with a MOR antagonist
  FLIPR Ca^2+ AUC: 16361
mu-opioid receptor (MOR); combined with a MOR antagonist, read-out: FLIPR Ca^2+ EC50
  EC50: 1.1 µM
mu-opioid receptor (MOR); combined with naltrexone, compared with naloxone
  AAM effect with naltrexone: worked as an AAM of naltrexone, with similar potency but a higher magnitude of efficacy
mu-opioid receptor (MOR); combined with one of the listed opioid antagonists
  calcium release in the presence of an opioid antagonist: induced significant calcium release
mu-opioid receptor (MOR); combined with β-Funaltrexamine hydrochloride 20 nM
  AUC: 8553.5
mu-opioid receptor (MOR); combined with β-Funaltrexamine hydrochloride 20 nM, read-out: EC50
  EC50: 0.346 ± 0.209 µM
mu-opioid receptor (MOR); compound alone, no antagonist
  response on its own (calcium release): did not show responses on their own; also recorded: did not elicit any response on its own
mu-opioid receptor (MOR); morphine CRC with compound at 30, 10, 3.3 μM
  effect on Emax and potency of morphine (PAM/NAM test): neither Emax nor potency of morphine was significantly altered
mu-opioid receptor (MOR); naloxone (25 nM)
  calcium release in the presence of naloxone: induced a significant calcium release
mu-opioid receptor (MOR); naloxone CRC with compound at different concentrations
  effect on concentration-response curve of naloxone (Emax, potency): both Emax and potency of naloxone were altered
